Article PMC3929365, “Benzimidazoisoquinolines: A New Class of Rapidly Metabolized Aryl Hydrocarbon Receptor (AhR) Ligands that Induce AhR-Dependent Tregs and Prevent Murine Graft-Versus-Host Disease” (PLoS ONE, 2014)

Assays:
AhR = experiment: Cytosol to nuclear translocation of AhR in Hepa-1 cells; type: cell-based, mouse; conditions: 10 nM, 1 h
AhR target genes = experiment: Expression of known AhR target genes in Hepa1 cells (RT-qPCR); type: cell-based, mouse; conditions: 10 nM, eight hours
Protocol: Supplementary file pone.0088726.s001.tif: Figure S1 10-Cl-BBQ induces the expression of known AhR target genes. Hepa1 cells were treated with 10-Cl-BBQ (10 nM), TCDD (10 nM), or vehicle (DMSO) for eight hours. RNA was extracted and RT-qPCR was performed for a select set of known AhR target genes. AHRR: aryl hydrocarbon receptor repressor, ALDH3A1: aldehyde dehydrogenase family 3; subfamily A1, CYP1b1: cytochrome P450 1b1; Gstm3: glutathione S-transferase, mu 3; GST-Ya: glutathione S transferase, alpha 1; NQO1: NAD(P)H dehydrogenase quinone 1; UGT2b34: UDP glucuronosyltransferase 2 family, polypeptide B34. (TIF) Click here for additional data file.

In the case of `O=c1c2cccc3cccc(c32)c2nc3ccc(Cl)cc3n12` [10-Cl-BBQ, 10-chloro-7H-benzimidazo[2,1-a]benzo[de]isoquinolin-7-one], the “cytosol to nuclear translocation of AhR” value (AhR) was “promoted cytosol to nuclear translocation of AhR” and the “induction of genes associated with AhR activation in hepatocytes” value (AhR target genes) was “induced a battery of genes”.
